Measured values reported in patent publication US7390783B2, “Charged phospholipid compositions and methods for their use” (Ottawa Heart Institute Research Corporation, priority 2000, dated 2008).
“Also recorded” adds a separate entry of the source.

Key:
Human plasma = experiment: Plasma clotting time (prothrombin time); format: biochemical; conditions: human plasma incubated with increasing amounts of vesicles, 24 h at 4° C.
Procedure: Referring now to FIG. 11, there is shown the effect of charged lipid on blood coagulation. Human plasma was incubated with various amounts of uncharged vesicles, phosphatidylcholine (PC) or anionic vesicles, phosphatidylinositol (PI), for 24 h at 4° C. Prothrombin time was then measured with the use of a commercially available kit.

HDL, LDL and VLDL = experiment: Lipoprotein surface charge after injection of PI or PC vesicles into rabbits (agarose gel electrophoresis); format: in vivo, rabbit
Procedure: 1-palmitoyl-2-oleoyl-phosphatidylcholine (PC) and 1-palmitoyl-2-oleoyl phosphatidylinositol (PI) vesicles are prepared by drying to completion 40 μmol of each lipid into a 12×75 mm culture tube under N2. The lipids are solubilized in 3 mL of sterile saline comprising 150 mM sodium chloride (pH 7.2) by sonication for 1 minute at constant duty cycle. The vesicles are incubated at 37° C. for 10 minutes and then sonicated at a high output for 4 minutes in 10° C. water bath under N2. In order to determine the rate of clearance of cholesterol from the test animals (rabbits), a radioactive tracer is added to the vesicle preparations prior to injection into the rabbit. 200 μL of 1 μCi/μmL [^3H]-FC is dried into a 12×75 mm culture tube with 40 μmol of PI or POPC. 3 ml of PBS is added to the dried lipids and the mixture is sonicated as described above. This tracer/vesicle preparation is injected and then 5 min later, the PI or PC vesicles were injected and blood is sampled as described below.
Male New Zealand white rabbits (3.5-4.0 kg) are fasted for 12 hours prior to injection and remain fasted until after data for the final time point is taken. Rabbits have free access to water during this time. A catheter is inserted into the marginal ear vein and blood samples are collected into tubes containing 7.5% (K3) EDTA solution at the desired time points. A pre-injection blood sample is taken and the vesicle solution of either PI (n=4), or PC (n=2) or saline (n=1) is injected into the marginal ear vein. A sample of blood is removed at 10, 30 min, 1, 3, 6 and 24 h after the injection. All blood samples are placed on ice and then centrifuged at 3000 rpm for 15 min at 4° C. to separate the plasma. In order to ensure that lecithin:cholesterol acyl transferase (LCAT) is inhibited in the stored plasma, iodoacetamide (150 mM) is added to plasma samples as taught by Guerin et al. (1994).
Lipoprotein fractions are isolated by sequential ultracentrifugation (VLDL+IDL, d<1.019 g/mL; LDL, d=1.019-1.063 g/mL; and HDL, d=1.063-1.21 g/mL) as known to one of skill in the art, and lipoprotein lipid composition (total cholesterol, free cholesterol (FC), and triglyceride (TG) concentrations) are determined enzymatically using kits from Roche Diagnostic (Laval, PQ). An aliquot of each lipoprotein isolated is dialysed into PBS and its surface charge characteristics were determined by electrophoresis on pre-cast 0.5% agarose gels using the procedure of Sparks and Phillips (1992).
Referring now to FIG. 1, there is illustrated the effect of injection of PI and PC vesicles on the estimated surface potential of HDL, LDL, and VLDL proteins in vivo. […] PC, which is a neutral phospholipid, may also bind to the lipoproteins. However since PC is a neutral phospholipid, no significant change in the migration of the lipoproteins is observed. The increased migratory property of lipoproteins in a gel peaks following injection of PI and returns to normal by about 24 hours. […] Similarly, the VLDL fraction is estimated to have an initial surface potential of about −8.8 mV, which increases to about −11.2 mV after 10 minutes. LDL is estimated to have an initial surface potential of about −3.9 mV, and peaks about 60 min after the PI injection at about −8.0 mV.

[1] = tested on: HDL, LDL and VLDL cholesterol; experiment: PI injections into hypercholesterolemic (cholesterol-fed) rabbits: lipoprotein cholesterol levels; format: in vivo, rabbit; conditions: 36 mg 2× daily for 7 days
Procedure: Referring now to FIG. 8, there is graphically depicted the effect of PI injection on lipoprotein cholesterol levels in hypercholesterolemic rabbits. Rabbits were fed a diet enriched in cholesterol for a period of 4 weeks to increase the levels of cholesterol in the LDL and VLDL particles in the bloodstream. One half of the study rabbits were then injected with 36 mg of PI 2× daily for 7 days. On day 7, plasma samples were drawn and lipoproteins were fractionated by size exclusion chromatography on two Superose 6 columns. Shown are gel filtration profiles for the different rabbit plasmas, which illustrate the levels of cholesterol in the various lipoprotein fractions. The untreated hypercholesterolemic rabbit plasma sample is shown to have high levels of LDL and VLDL cholesterol. PI injections caused a greater than 7-fold reduction in VLDL cholesterol and about a 2.5-fold reduction in LDL cholesterol levels over the 7 day period. […] PI therefore can be used to treat hypercholesterolemia and reduce plasma LDL and VLDL cholesterol levels.

HEPG2 cells = experiment: Cellular cholesterol uptake from PI-enriched plasma or lipoproteins; format: cell-based
From the text: Almost complete inhibition of the enzyme that produces CE parallelled major increases in the amount of this lipid in VLDL particles. […] Cholesterol transport into VLDL may instead be governed by the charge and structural characteristics of plasma lipoproteins, which may regulate interfacial interactions with specific receptors and cholesterol storage depots on cell surfaces. […] Without wishing to be limited by theory, it is considered that the enhanced uptake of cholesterol from PI-enriched HDL is not facilitated by a scavenger receptor-BI mediated pathway but is associated with a novel protein kinase C dependent uptake pathway. Therefore, it is considered that control of lipoprotein charge by the administration of charged compounds will allow for the manipulation of FC and CE influx/efflux from cell surfaces and the selective control of plasma cholesterol metabolism.

SMILES: CCCCCCCC/C=C\CCCCCCCC(=O)O[C@H](COC(=O)CCCCCCCCCCCCCCC)COP(=O)(O)O[C@@H]1[C@H](O)[C@H](O)[C@@H](O)[C@H](O)[C@H]1O [PI, 1-palmitoyl-2-oleoyl phosphatidylinositol]
- effect on plasma clotting time (prothrombin time) (Human plasma): caused an inhibition to the formation of prothrombin
- HDL surface potential, peak negative charge (HDL, LDL and VLDL; about 10 minutes after injection, background about −12.2 mV prior to injection, estimated from gel migration): about −18.0 mV
- LDL surface potential, peak (HDL, LDL and VLDL; about 60 min after injection, initial about −3.9 mV, estimated): about −8.0 mV
- VLDL surface potential (HDL, LDL and VLDL; after 10 minutes, initial about −8.8 mV, estimated): about −11.2 mV
- time for increased lipoprotein migration to return to normal (HDL, LDL and VLDL; after injection): about 24 hours
- effect on lipoprotein net negative surface charge / migration of HDL, LDL and VLDL into agarose gel (HDL, LDL and VLDL; intravenous injection of vesicles, fasted rabbit): significant increase; also recorded: increased migration of all lipoprotein fractions
- effect on amount of cholesterol in the HDL particles [1]: slightly increased
- reduction in LDL cholesterol levels [1]: ~2.5 fold
- reduction in VLDL cholesterol [1]: greater than 7 fold
- effect on cellular cholesterol uptake, PI enrichment of LDL (HEPG2 cells): does not
- effect on cellular cholesterol uptake, PI-enrichment of plasma or HDL (HEPG2 cells): stimulates cellular cholesterol uptake
